From PMC7252906 (Toxicology and applied pharmacology, 2019)
“And” between values parts separate entries of the source, which are not always exact repeats. Equal values may be shown once. Read-outs that look alike come from different tables or passages of the source.

Tests used:
[1] = Disposition of [^14C]DMAE after single gavage administration, strain comparison; type: in vivo; settings: male Sprague Dawley rats, gavage 500 mg/kg, 24 h
[2] = Incorporation of [^14C]DMAE-derived radioactivity in tissue lipids; type: in vivo, Wistar Han rats; settings: gavage 100 mg/kg, 2 h; for Radioactivity in tissue lipids (% dose administered) / Total radioactivity in tissue lipids: male rats
[3] = male Wistar Han rats, gavage 100 mg/kg, 24 h
[4] = male Wistar Han rats, gavage 500 mg/kg, 24 h
[5] = male Wistar Han rats, gavage 500 mg/kg, 72 h

Question: Which “% Dose Recovered, Urine” value (male Wistar Han rats, gavage 10 mg/kg, 24 h, listed as [^14C]DMAE, 10 mg/kg) does the source give for `CN(C)CCO` [DMAE, Dimethylaminoethanol] here?
Answer: 57.0 ± 4.10 % dose

Question: And the “% Dose Recovered, CO2” value [3]?
Answer: 4.84 ± 0.700 % dose

Question: What about the “% Dose Recovered, Feces” value [3] of the same compound?
Answer: 0.302 ± 0.061 % dose

Question: What about the “% Dose Recovered, Tissues and GI Tract (includes contents)” value (“% Dose Recovered, Tissues and GI Tract” for short) [3] of the same compound?
Answer: 30.1 ± 3.80 % dose

Question: What about the “% Dose Recovered, Total Recovered” value [3] of the same compound?
Answer: 93.9 ± 2.90 % dose

Question: What about the “percent radioactivity remaining in all tissues, excluding GI tract” value [3] of the same compound?
Answer: ~25%

Question: And the “% Dose Recovered, Urine” value (male Wistar Han rats, gavage 100 mg/kg, 24 h, listed as [^14C]DMAE, 100 mg/kg)?
Answer: 59 % dose and 58.6 ± 5.10 % dose

Question: What about the “% Dose Recovered, CO2” value [4] of the same compound?
Answer: 4.78 ± 0.810 % dose

Question: And the “% Dose Recovered, Feces” value [4]?
Answer: 0.518 ± 0.472 % dose

Question: And the “% Dose Recovered, Tissues and GI Tract” value [4]?
Answer: 24.3 ± 2.10 % dose

Question: What about the “% Dose Recovered, Total Recovered” value [4] of the same compound?
Answer: 92.1 ± 1.90 % dose

Question: What about the “% Dose Recovered, VOCs” value [4] of the same compound?
Answer: 0.198 ± 0.038 % dose

Question: And the “percent radioactivity remaining in all tissues, excluding GI tract” value [4]?
Answer: ~21%

Question: What about the “% Dose Recovered, Urine” value (male Wistar Han rats, gavage 500 mg/kg, 24 h, listed as [^14C]DMAE, 500 mg/kg) of the same compound?
Answer: 62 % dose and 62.1 ± 1.50 % dose

Question: And the “% Dose Recovered, Feces” value [5]?
Answer: 1.11 ± 1.01 % dose

Question: And the “% Dose Recovered, Tissues and GI Tract” value [5]?
Answer: 14.5 ± 1.20 % dose

Question: What about the “% Dose Recovered, Total Recovered” value [5] of the same compound?
Answer: 92.0 ± 2.20 % dose

Question: What about the “% Dose Recovered, Urine” value [5] of the same compound?
Answer: 68.6 ± 2.00 % dose

Question: What about the “administered dose found as expired CO2” value (male Wistar Han rats, gavage, all dose levels (10, 100, 500 mg/kg), 24 h) of the same compound?
Answer: 4–5%

Question: And the “total administered dose recovered” value (male and female Wistar Han rats, oral administration, range over groups)?
Answer: 92–98%

Question: And the excretion in urine (rats, gavage, range over groups)?
Answer: 57–64%

Question: And the “excreted as exhaled CO2” value (rats, range over groups)?
Answer: ≤ 6%

Question: And the “% Dose Recovered, CO2” value [1]?
Answer: 2.94 ± 0.230 % dose

Question: And the “% Dose Recovered, Feces” value [1]?
Answer: 0.538 ± 0.335 % dose

Question: And the “% Dose Recovered, Tissues and GI Tract” value [1]?
Answer: 34.1 ± 1.80 % dose

Question: And the “% Dose Recovered, Total Recovered” value [1]?
Answer: 98.3 ± 3.50 % dose

Question: And the “% Dose Recovered, Urine” value [1]?
Answer: 60.4 ± 3.80 % dose

Question: What about the “% Dose Recovered, VOCs” value [1] of the same compound?
Answer: 0.220 ± 0.047 % dose

Question: What about the “highest level of radioactivity incorporated into lipids in any tissues” value ([2]; male Wistar Han rats) of the same compound?
Answer: ~ 1 % of the administered dose

Question: What about the “Radioactivity in tissue lipids (% dose administered)” value ([2]; Brain, Fatty Acids) of the same compound?
Answer: 0.020 % dose

Question: And the “Total radioactivity in tissue lipids” value ([2]; Brain, Fatty Acids)?
Answer: 34

Question: What about the “Radioactivity in tissue lipids (% dose administered)” value ([2]; Brain, Neutral Lipids) of the same compound?
Answer: 0.075 % dose

Question: What about the “Total radioactivity in tissue lipids” value ([2]; Brain, Neutral Lipids) of the same compound?
Answer: 107

Question: And the “Radioactivity in tissue lipids (% dose administered)” value ([2]; Brain, Phospholipids)?
Answer: 0.097 % dose

Question: What about the “Total radioactivity in tissue lipids” value ([2]; Brain, Phospholipids) of the same compound?
Answer: 167

Question: And the “Radioactivity in tissue lipids (% dose administered)” value ([2]; Heart, Fatty Acids)?
Answer: 0.010 % dose

Question: What about the “Total radioactivity in tissue lipids” value ([2]; Heart, Fatty Acids) of the same compound?
Answer: 17

Question: What about the “Radioactivity in tissue lipids (% dose administered)” value ([2]; Heart, Neutral Lipids) of the same compound?
Answer: 0.028 % dose

Question: And the “Total radioactivity in tissue lipids” value ([2]; Heart, Neutral Lipids)?
Answer: 40

Question: What about the “Radioactivity in tissue lipids (% dose administered)” value ([2]; Heart, Phospholipids) of the same compound?
Answer: 0.188 % dose

Question: And the “Total radioactivity in tissue lipids” value ([2]; Heart, Phospholipids)?
Answer: 323

Question: What about the “Radioactivity in tissue lipids (% dose administered)” value ([2]; Kidney, Fatty Acids) of the same compound?
Answer: 0.047 % dose

Question: What about the “Total radioactivity in tissue lipids” value ([2]; Kidney, Fatty Acids) of the same compound?
Answer: 81

Question: What about the “Radioactivity in tissue lipids (% dose administered)” value ([2]; Kidney, Neutral Lipids) of the same compound?
Answer: 0.029 % dose

Question: And the “Total radioactivity in tissue lipids” value ([2]; Kidney, Neutral Lipids)?
Answer: 41

Question: What about the “Radioactivity in tissue lipids (% dose administered)” value ([2]; Kidney, Phospholipids) of the same compound?
Answer: 0.771 % dose

Question: What about the “Total radioactivity in tissue lipids” value ([2]; Kidney, Phospholipids) of the same compound?
Answer: 1322

Question: What about the “Radioactivity in tissue lipids (% dose administered)” value ([2]; Liver, Phospholipids) of the same compound?
Answer: 1.117 % dose

Question: And the “Total radioactivity in tissue lipids” value ([2]; Liver, Phospholipids)?
Answer: 1915

Question: And the “Radioactivity in tissue lipids (% dose administered)” value ([2]; Lung, Fatty Acids)?
Answer: 0.074 % dose

Question: And the “Total radioactivity in tissue lipids” value ([2]; Lung, Fatty Acids)?
Answer: 127

Question: And the “Radioactivity in tissue lipids (% dose administered)” value ([2]; Lung, Neutral Lipids)?
Answer: 0.276 % dose

Question: What about the “Total radioactivity in tissue lipids” value ([2]; Lung, Neutral Lipids) of the same compound?
Answer: 395

Question: And the “Radioactivity in tissue lipids (% dose administered)” value ([2]; Lung, Phospholipids)?
Answer: 0.926 % dose

Question: What about the “Total radioactivity in tissue lipids” value ([2]; Lung, Phospholipids) of the same compound?
Answer: 1587

Question: And the “Radioactivity in tissue lipids (% dose administered)” value ([2]; Skin, Fatty Acids)?
Answer: 0.007 % dose

Question: What about the “Total radioactivity in tissue lipids” value ([2]; Skin, Fatty Acids) of the same compound?
Answer: 12

Question: And the “Radioactivity in tissue lipids (% dose administered)” value ([2]; Skin, Neutral Lipids)?
Answer: 0.003 % dose

Question: And the “Total radioactivity in tissue lipids” value ([2]; Skin, Neutral Lipids)?
Answer: 4

Question: And the “Radioactivity in tissue lipids (% dose administered)” value ([2]; Skin, Phospholipids)?
Answer: 0.251 % dose

Question: What about the “Total radioactivity in tissue lipids” value ([2]; Skin, Phospholipids) of the same compound?
Answer: 430

Question: What about the “Radioactivity in tissue lipids (% dose administered)” value ([2]; Spleen, Fatty Acids) of the same compound?
Answer: 0.004 % dose

Question: What about the “Total radioactivity in tissue lipids” value ([2]; Spleen, Fatty Acids) of the same compound?
Answer: 7

Question: And the “Radioactivity in tissue lipids (% dose administered)” value ([2]; Spleen, Neutral Lipids)?
Answer: 0.004 % dose

Question: What about the “Total radioactivity in tissue lipids” value ([2]; Spleen, Neutral Lipids) of the same compound?
Answer: 7

Question: What about the “Radioactivity in tissue lipids (% dose administered)” value ([2]; Spleen, Phospholipids) of the same compound?
Answer: 0.055 % dose

Question: And the “Total radioactivity in tissue lipids” value ([2]; Spleen, Phospholipids)?
Answer: 95

Question: And the “Radioactivity in tissue lipids (% dose administered)” value ([2]; Testes, Fatty Acids)?
Answer: 0.013 % dose

Question: What about the “Total radioactivity in tissue lipids” value ([2]; Testes, Fatty Acids) of the same compound?
Answer: 23

Question: And the “Radioactivity in tissue lipids (% dose administered)” value ([2]; Testes, Neutral Lipids)?
Answer: 0.008 % dose

Question: And the “Total radioactivity in tissue lipids” value ([2]; Testes, Neutral Lipids)?
Answer: 11

Question: And the “Radioactivity in tissue lipids (% dose administered)” value ([2]; Testes, Phospholipids)?
Answer: 0.097 % dose

Question: And the “Total radioactivity in tissue lipids” value ([2]; Testes, Phospholipids)?
Answer: 167
